Where two headings read alike, the source gives them in different places.
How the values were obtained:
COL6A1 = test: PCR array gene expression, COL6A1; format: cell-based
From the text: (§1) In light of the efficacy of the aryl alkanones ire addressing many of the molecular/biomolecular processes damaged by UV exposure, a study was undertaken to assess whether these compounds would also be effective in addressing symptoms associated with non-UV induced skin aging including chronological aging as well as disease conditions that likewise adversely affect skin processes. The studies conducted involves DNA microarray, PCR array, cell culture, enzyme inhibitory activity.

ITGB5 = test: PCR array gene expression, ITGB5; format: cell-based
From the text: as §1

NOX [1] = conditions: UVA, Fibroblasts
human dermal fibroblasts = test: UVA-induced plasma membrane disruption (Mitochondrial ToxGlo Assay); format: cell-based; conditions: 24 hour Pre-incubation
Method: (§2) The study was conducted in accordance with the protocols of Berridge et al, (M V Berridge & A S Tan, Characterization of the cellular reduction of 3-(4,5-dimethylthiazol-2-yl)-2,5-diphenyltetrazolium bromide (MTT): subcellular localization, substrate dependence, and involvement of mitochondrial electron transport in MTT reduction, Arch. Biochem. Biophys. 303:474-482, 1993) and Voigt (W Voigt, Sulforhodamine B assay and chemosensitivity, Methods Mol Med, 110:39-48, 2005). Cellular metabolism is determined using the MTT assay to measure the activity of mitochondrial dehydrogenases, such as succinate dehydrogenase, which are implicated in the respiratory electron transport chain in mitochondria [M V Berridge & Tan Biochem Biophys, 303:474-482, 1993]. Additionally, the samples were subject to the Mitochondrial ToxGlo Assay (Promega Technical Manual, G8000 and G8001), which is a cell-based assay method that has been developed to quantify potential mitochondrial dysfunction as a result of xenobiotic exposure, using a sequential-addition, multiplexed chemistry.
(§3) Table 8 presents the result on the effect of UVA radiation on cell metabolism 3 hours after irradiation. As indicated, Compound 1 improves cell metabolism, even at a very low use concentration. Table 9 presents the effect of 24 hour pre-incubation on UVA-induced mitochondrial damage measured by ATP production in human dermal fibroblasts. […] Finally. Table 10 presents the effect of 24 hour pre-incubation on UVA-induced plasma membrane disruption in human dermal fibroblasts. As indicated, Compound 1 almost completely reversed plasma membrane disruption, again at a very low use concentration.

VMN = test: DNA microarray gene expression, VMN; format: cell-based
From the text: as §1

[2] = tested on: mitochondrial dehydrogenases; test: MTT assay of cellular metabolism after UVA irradiation; format: cell-based; conditions: 3 hours after irradiation
Method: as §2, §3

COL11A1 [3] = test: DNA microarray gene expression, COL11A1; format: cell-based
From the text: as §1

NOX [4] = conditions: Keratinocytes
Collagen type 3 = test: Collagen 3 boosting in human dermal fibroblasts; format: cell-based; conditions: HDF, incubation time of 6 days
Method: In this study, an investigation was performed in relation to the ability, if any, of the aryl alkanones to boost the production of Collagens 1, 3 and 4 proteins. The study was conducted using human fibroblasts in accordance with the method of J Dobak et at (J Dobak, J Grzybowski, F T Liu, B Landon, M Dobke, 1, 25-Dihydroxyvitamin D3 increases collagen production in dermal fibroblasts, J Dermatol Sci 1994; 8:18-24, 1994). In this study, the cells used were human dermal fibroblasts (HDF), passage 12 (Cell Applications, San Diego, Calif.) which underwent an incubation time of 6 days.

TIMP3 = test: DNA microarray gene expression, TIMP3; format: cell-based
From the text: as §1

MSH6 = test: DNA microarray gene expression, MSH6; format: cell-based
From the text: as §1

COL11A1 [5] = test: PCR array gene expression, COL11A1; format: cell-based
From the text: as §1

Keratinocyte = test: UVA-induced delayed formation of CPDs (dCPDs) in keratinocytes; format: cell-based; conditions: 25 μg/ml
Method: A second study was carried out, similar to the first, except that this time the analysis was in assessing the efficacy, if any, of the presently taught aryl alkanones in reducing UVA-induced delayed formation of CPDs (dCPDs).

Cell # = test: Cell number (Sulforhodamine B assay) after UVA irradiation; format: cell-based; conditions: 3 hours after irradiation
Method: as §2, §3

COL4A1 = test: DNA microarray gene expression, COL4A1; format: cell-based
From the text: as §1

MMP-12 = MMP-12 (Homo sapiens, UniProt P39900); test: MMP-12 (Elastase) inhibition; format: biochemical; conditions: read-out: Inhibitory concentration (IC50), MMP-12
MMP-12, sequence (P39900 106-470): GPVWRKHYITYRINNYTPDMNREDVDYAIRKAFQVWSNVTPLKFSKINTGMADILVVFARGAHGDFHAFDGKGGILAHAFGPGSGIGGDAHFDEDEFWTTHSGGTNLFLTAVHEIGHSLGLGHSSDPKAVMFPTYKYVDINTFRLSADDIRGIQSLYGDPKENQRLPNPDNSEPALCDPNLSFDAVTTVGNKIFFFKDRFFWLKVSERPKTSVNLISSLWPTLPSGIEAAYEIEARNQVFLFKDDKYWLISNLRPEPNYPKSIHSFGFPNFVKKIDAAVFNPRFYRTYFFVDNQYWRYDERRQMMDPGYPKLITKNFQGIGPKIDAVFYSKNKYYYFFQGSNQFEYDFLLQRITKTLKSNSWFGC
Method: The methodology for the study of MMP-12 activity was as follows: • A 0.1 g sample of Compound 1 was dissolved in 1 ml DMSO, then it was diluted 100× with 1.4% randomly methylated cyclodextrin in Iris buffer (50 mM Tris pH 7.5, 150 mM NaCl, 2 mM CaCl2, 5μ ZnSO4, 0.01% Brij-35) to make a stock solution. For the analysis, different concentrations of Compound 1 were used to determine the IC50. In the well: 0.2 mM substrate, 0.25 μg/ml enzyme, and sample were mixed and read according to the reference (TSA Thring et al. BMC Complementary and Alternate Medicine, 9, 27, 2009; https://doi.org/10.1186/1472-6882-9-27)

ITGA2 = test: PCR array gene expression, ITGA2; format: cell-based
From the text: as §1

LAMC1 = test: PCR array gene expression, LAMC1; format: cell-based
From the text: as §1

COc1cc(CC(C(C)=O)C(C)=O)ccc1O [Compound 1, Acetyl Zingerone]
PCR array, COL6A1 gene expression (COL6A1): +1.5
PCR array, ITGB5 gene expression (ITGB5): +1.7
reduction of NOX activity (NOX [1]; 25 μg/ml): −27%
reduction of NOX activity (NOX [1]; 50 μg/ml): −33%
Plasma membrane disruption-related fluorescence (% Control) (human dermal fibroblasts; 6.25 ug/ml): 125 % Control
Plasma membrane disruption-related fluorescence (% Control) (human dermal fibroblasts; 12.5 ug/ml): 130 % Control
Plasma membrane disruption-related fluorescence (% Control) (human dermal fibroblasts; 25 ug/ml): 117 % Control
Microarray, VMN gene expression (VMN): +1.7
Cell Metabolism Standardized to cell # (% Control) ([2]; 0.5 μg/ml): 123 % Control
MTT (% Control) ([2]; 0.5 μg/ml): 122 % Control
Cell Metabolism Standardized to cell # (% Control) ([2]; 2 μg/ml): 136 % Control
MTT (% Control) ([2]; 2 μg/ml): 137 % Control
Cell Metabolism Standardized to cell # (% Control) ([2]; 5 μg/ml): 174 % Control
MTT (% Control) ([2]; 5 μg/ml): 164 % Control
Microarray, COL11A1 gene expression (COL11A1 [3]): +1.6
reduction of NOX activity (NOX [4]; UVA, 25 μg/ml): −27%
reduction of NOX activity (NOX [4]; UVA, 50 μg/ml): −38%
reduction of NOX activity (NOX [4]; UVB, 25 μg/ml): −11%
reduction of NOX activity (NOX [4]; UVB, 50 μg/ml): −29%
% Collagen 3 boosting (Collagen type 3; 50 μg/ml): 111%
% Collagen 3 boosting (Collagen type 3; 100 μg/ml): 146%
Microarray, TIMP3 gene expression (TIMP3): +5.1
Microarray, MSH6 gene expression (MSH6): +2.1
PCR array, COL11A1 gene expression (COL11A1 [5]): +1.9
UVA/% Reduction in dCPDs vs. control, 0 hr. (Reduction in iCPDs) (Keratinocyte; 0 hr.): ^+0 hr.: ↓14%
UVA/% Reduction in dCPDs vs. control, 1 hr. (Keratinocyte; 1 hr.): 1 hr.: ↓43%
UVA/% Reduction in dCPDs vs. control, 2 hr. (Keratinocyte; 2 hr.): 2 hr.: ~0%
Cell # (% Control) (Cell #; 0.5 μg/ml): 99 % Control
Cell # (% Control) (Cell #; 2 μg/ml): 101 % Control
Cell # (% Control) (Cell #; 5 μg/ml): 95 % Control
Microarray, COL4A1 gene expression (COL4A1): +1.6
IC50 (MMP-12): 1060 µM
PCR array, ITGA2 gene expression (ITGA2): +1.6
PCR array, LAMC1 gene expression (LAMC1): +2.0

From patent publication US10568819B2, “Skin enhancing compositions and methods” (Sytheon Limited, priority 2016, dated 2020)
